Tests used:
[1] = human, serum
[2] = human
[3] = Presence of at least one case with successful reintroduction. [column 'REINT' in source]; conditions: human
[4] = human; remark: listed apart in the source
[5] = Highest frequency of moderate liver toxicity observed during clinical trials, expressed as a percentage. [column '% BIOL' in source]; conditions: human
[6] = human; remark: listed apart in the source
[7] = human; remark: listed apart in the source
[8] = Times to onset, minimal and maximal, observed in the indexed observations. [column 'DELAI' in source]; conditions: human
[9] = Highest frequency of acute liver toxicity observed during clinical trials, expressed as a percentage. [column '% AIGUE' in source]; conditions: human
[10] = human; remark: listed apart in the source
[11] = human; remark: listed apart in the source
[12] = human, serum, 4383 h
[13] = Comments (NB not yet translated). [column 'COMMENTAIRES' in source]; conditions: human
[14] = Proposed mechanism(s) of liver damage. [column 'MEC' in source]; conditions: human
[15] = human; remark: listed apart in the source
[16] = human; remark: listed apart in the source
[17] = human; remark: listed apart in the source
[18] = human; remark: listed apart in the source
[19] = human, serum; remark: listed apart in the source
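For Hepatotoxicity (association with vascular disease) in this document: count of indexed literature references reporting vascular liver injury in humans, e.g. peliosis hepatitis, hepatic veno-occlusive disease or Budd-Chiari syndrome.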
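For Hepatotoxicity (benign tumour) in this document: value is a count of indexed literature references citing a benign tumour confirmed by histopathology.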
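For Hepatotoxicity (choleostasis) in this document: human cholestatic liver injury, shown by histopathology or by peak ALT or AST elevation over alkaline phosphatase ratio below 2, value counts indexed literature reports.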
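For Hepatotoxicity (chronic liver disease) in this document: chronic liver injury confirmed by histopathology or persistently raised serum aminotransferase activity beyond 6 months, value given as the count of indexed literature references.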
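For Hepatotoxicity (cirrhosis) in this document: value is a count of indexed literature references reporting cirrhosis confirmed by histopathology.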
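For Hepatotoxicity (cytolytic) in this document: human cytolytic liver injury, shown by histopathology or by a ratio above 5 of peak ALT or AST elevation to alkaline phosphatase elevation, value counts indexed references.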
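For Hepatotoxicity (granulomatous hepatitis) in this document: value is a count of indexed literature references reporting granulomatous liver disease confirmed by histopathology.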
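For Hepatotoxicity (malignant tumour) in this document: malignant tumour confirmed by histopathology, value gives the count of indexed literature references reporting it.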
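For Hepatotoxicity (severe hepatitis) in this document: human clinical data: severe hepatitis, meaning potentially life-threatening liver failure or clinically observed cases, the value counts how many indexed literature references report it.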
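For Hepatotoxicity (steatosis) in this document: steatosis confirmed by histopathology, value is the count of indexed references.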

Row | Compound | Hepatotoxicity (acute) [1] | Hepatotoxicity (choleostasis) [2] | Hepatotoxicity (successful reintroduction) [3] | Hepatotoxicity (granulomatous hepatitis) [4] | Hepatotoxicity (moderate) [5] | Hepatotoxicity (malignant tumour) [6] | Hepatotoxicity (benign tumour) [7] | Hepatotoxicity (time to onset) [8] | Hepatotoxicity (acute) [9] | Hepatotoxicity (steatosis) [10] | Hepatotoxicity (association with vascular disease) [11] | Hepatotoxicity (chronic liver disease) [12] | Hepatotoxicity (comment) [13] | Hepatotoxicity (mechanism) [14] | Hepatotoxicity (cirrhosis) [15] | Hepatotoxicity (animal toxicity known) [16] | Hepatotoxicity (severe hepatitis) [17] | Hepatotoxicity (cytolytic) [18] | Hepatotoxicity (moderate) [19]
1 | CC(C)NNC(=O)c1ccncc1 [IPRONIAZID] | 30 | 3 | yes | 0 | 30% | 0 | 0 | 3 days - 1 year | 1.4% | 0 | 0 | 3 | AC_ANTI-M6 RC/PHENIPRAZINE | Allergic, Reactive metabolite | 3 | yes | 18 | 28 | 2
2 | CC(C)Nc1ncccn1 [ISAXONINE] | 13 | 3 | yes | 1 | 0% | 0 | 0 | 1 month - 6 months | 0% | 1 | 0 | 0 | AC_ANTI-MFR1 | Allergic, Reactive metabolite | 0 | yes | 4 | 13 | 0
3 | FC(F)OC(Cl)C(F)(F)F (centres undefined) [ISOFLURANE] | 25 | 1 | yes | 0 | 13.3% | 0 | 0 | < 1 day - 3 weeks | 0% | 2 | 0 | 0 | AC_ANTI-MFR/-TFA I/ALCOOL | Allergic, Reactive metabolite | 0 | yes | 11 | 20 | 5
4 | NNC(=O)c1ccncc1 [ISONIAZID] | 91 | 11 | yes | 1 | 51.2% | 0 | 0 | 1 day - 1 year | 26.7% | 1 | 0 | 3 | I/CARBAMAZE/ENFLURANE/PARACETAMOL/RIFAMPICINE/RIFAMYCINE/VALPROATE | Dose-dependant, Reactive metabolite | 4 | yes | 40 | 61 | 60
5 | CC(=O)N1CCN(c2ccc(OCC3COC(Cn4ccnc4)(c4ccc(Cl)cc4Cl)O3)cc2)CC1 (centres undefined) [KETOCONAZOLE] | 45 | 19 | yes | 1 | 50% | 0 | 0 | 3 days - 5 years | 2.9% | 2 | 0 | 3 | CHOLESTASE_PROLONGEE | Toxic, Dose-dependant | 0 | yes | 14 | 37 | 62
6 | COC(=O)Nc1nc2ccc(C(=O)c3ccccc3)cc2[nH]1 [MEBENDAZOLE] | 3 | 0 | yes | 1 | 30% | 0 | 0 | 2 days - 2 months | 0% | 0 | 0 | 0 | AC_ANTI-ML I/CIMETIDINE | Allergic, Dose-dependant | 0 | yes | 0 | 3 | 13
7 | Cc1ccc(S(=O)(=O)NC(=O)NC2CCCCC2)cc1N [METAHEXAMIDE] | 11 | 4 | yes | 0 | 24% | 0 | 0 | 4 days - 1 week | 4.4% | 0 | 0 | 0 | PERICHOLANGITE RC/CARBUTAMIDE | Dose-dependant | 1 | yes | 2 | 7 | 6
8 | CN(Cc1cnc2nc(N)nc(N)c2n1)c1ccc(C(=O)N[C@@H](CCC(=O)O)C(=O)O)cc1 [METHOTREXATE] | 26 | 2 | yes | 8 | 88% | 8 | 0 | 4 hours - 16 years | 35% | 16 | 5 | 45 | I/ETRETINATE REACTIVATION_HVB SHNA MVO | Dose-dependant | 42 | yes | 5 | 21 | 173
9 | COC(F)(F)C(Cl)Cl [METHOXYFLURANE] | 32 | 0 | yes | 0 | 0% | 0 | 0 | 1 day - 20 days | 0% | 3 | 0 | 0 | RC/HALOTHANE | Allergic, Reactive metabolite | 0 | yes | 19 | 27 | 8
10 | CN(C)c1ccc(O)c2c1C[C@H]1C[C@H]3[C@H](N(C)C)C(O)=C(C(N)=O)C(=O)[C@@]3(O)C(O)=C1C2=O [MINOCYCLINE] | 48 | 2 | yes | 1 | 41.7% | 0 | 0 | 4 days - 12 years | 0% | 2 | 0 | 11 | AC_ANTI-N/-ADN/-pNCA REACTIVATION_VH-6 | Allergic, Dose-dependant, Toxic Metabolite | 0 | yes | 8 | 36 | 17
11 | CCC(=O)O[C@](Cc1ccccc1)(c1ccccc1)[C@H](C)CN(C)C [PROPOXYPHENE] | 21 | 20 | yes | 0 | 14.3% | 0 | 0 | 1 day - 1.5 years | 0% | 0 | 0 | 1 | CHOLANGITE | Allergic, Dose-dependant | 0 | yes | 0 | 7 | 6

Source: ChEMBL document CHEMBL3137667, “[Drug-induced liver injury; fourteenth updated edition of the bibliographic database of liver injuries and related drugs]” (Gastroenterol Clin Biol, 2004)
